In patent US6548515B1, “Dihydrofuro[3,4-b]quinolin-1-one compounds” (Les Laboratories Servier, priority 1999, dated 2003):

Legend:
[1] = test system: human non-small-cell lung carcinoma, A549; assay: Cytotoxicity in vitro (Microculture Tetrazolium Assay), A549; format: cell-based; conditions: 96 h, A549 cells, incubated 4 days, inhibition of proliferation by 50%
Description: (§1) Three cell lines are used:
1 human non-small-cell lung carcinoma, A549,
(§2) The cells are cultured in complete RPMI 1640 culture medium containing 10% foetal calf serum, 2 mM glutamine, 50 units/ml of penicillin, 50 μg/ml of streptomycin and 10 mM Hepes, pH=7.4. The cells are distributed in microplates and exposed to the cytotoxic compounds. The cells are then incubated for 2 days (L1210) or 4 days (A549, HT29). The number of viable cells is then quantified by means of a calorimetric assay, the Microculture Tetrazolium Assay (Cancer Res. 1987, 47, 939-942).
(§3) The results are expressed as IC50, the concentration of cytotoxic agent that inhibits the proliferation of the treated cells by 50%.

P388 (murine leukaemia) = assay: In vivo anti-tumour activity on P388 leukaemia; parameters: species or system female BDF1 mice; conditions: P388 i.p. in BDF1 mice, intraperitoneal route on day 1, active from the 50 mg/kg dose
Description: Line P388 (murine leukaemia) was supplied by the National Cancer Institute (Frederick, USA). The tumour cells (10^6 cells) were inoculated on day 0 into the peritoneal cavity of female BDF1 mice (Iffa-Credo, France) weighing from 18 to 20 g (groups of 6 animals). The products were administered by the intraperitoneal route on day 1 (D1).
The anti-tumour activity is expressed as % T/C: [formula]

[2] = test system: human colon carcinoma, HT29; assay: Cytotoxicity in vitro (Microculture Tetrazolium Assay), HT29; format: cell-based; conditions: HT-29, 96 h, HT29 cells, incubated 4 days, inhibition of proliferation by 50%
Description: as §1
1 human colon carcinoma, HT29
as §2, §3

murine leukaemia, L1210 = assay: Cytotoxicity in vitro (Microculture Tetrazolium Assay), L1210; format: cell-based; conditions: Mus musculus, 48 h; L1210 cells, incubated 2 days, inhibition of proliferation by 50%
Description: as §1
1 murine leukaemia, L1210,
as §2, §3

| SMILES | IC50 [1] | T/C (survival of the treated animals) (P388 (murine leukaemia)) | IC50 [2] | IC50 (murine leukaemia, L1210) |
| --- | --- | --- | --- | --- |
| COc1cc(C2C3=C(COC3=O)N(C)c3cc4c(cc32)OCO4)cc(OC)c1OC (racemic) [Example 1, (±)-4-Methyl-6,7-methylenedioxy-9-(3,4,5-trimethoxyphenyl)-4,9-dihydrofuro[3,4-b]quinolin-1(3H)-one] | 102 nM | ≥ 200% | 104 nM | 53 nM |
| COc1cc(CN2C3=C(C(=O)OC3)C(c3cc(OC)c(OC)c(OC)c3)c3cc4c(cc32)OCO4)cc(OC)c1O (racemic) [Example 8, (±)-4-(3,5-Dimethoxy-4-hydroxybenzyl)-6,7-methylenedioxy-9-(3,4,5-trimethoxyphenyl)-4,9-dihydrofuro[3,4-b]quinolin-1(3H)-one] | 147 nM | – | 153 nM | 62 nM |
| COc1cc(C2C3=C(COC3=O)Nc3cc4c(cc32)OCO4)cc(OC)c1OC (racemic) [Example 10, (±)-6,7-Methylenedioxy-9-(3,4,5-trimethoxyphenyl)-4,9-dihydrofuro[3,4-b]quinolin-1(3H)-one] | 22 nM | – | 18 nM | 12 nM |
